In PMC6203605 (Journal of biological inorganic chemistry : JBIC : a …, 2018):

Tests used:
[1] = target: HemO (Pseudomonas aeruginosa, UniProt G3XCZ8); assay: intrinsic fluorescence quenching; format: binding
[2] = target: HemO (Pseudomonas aeruginosa, UniProt G3XCZ8, D99A); assay: biochemical
[3] = target: HemO (Pseudomonas aeruginosa, UniProt G3XCZ8, D99A/R188A); assay: biochemical
[4] = target: HemO (Pseudomonas aeruginosa, UniProt G3XCZ8, R188A); assay: biochemical

## C=CC1=C(C)C2=Cc3c(C=C)c(C)c4[n]3[Fe]([Cl])[n]3c(c(C)c(CCC(=O)O)c3=CC3=NC(=C4)C(C)=C3CCC(=O)O)=CC1=N2 [heme]
[1]
  Kd: 0.87 ± 0.17 µM
[2]
  Kd: 0.83 ± 0.21 µM
[3]
  Kd: 0.99 ± 0.21 µM
[4]
  Kd: 0.79 ± 0.22 µM
